Measurements reported in patent US10759831B2, “Peptide compound, production method therefor, and use thereof” (iNtRON Biotechnology, Inc., priority 2014, dated 2020).
Where two headings read alike, the source gives them in different places.

Columns and labels:
[1] = test system: RKO cells; assay: Tumor xenograft mouse model, RKO human colon cancer cell line; type: in vivo; settings: nude mouse; for Tumor growth inhibition ratio: 21 days
Experimental: The anticancer effect of […] was verified in a tumor xenograft mouse model to which human colon cancer cell line was transplanted. In detail, RKO cells were subcutaneously injected at a concentration of 3.5×10^6 cells/150 μl into the right side of a nude mouse (Central Lab. Aminol Inc., hairless and small mouse that was tymus free and had dried beard at birth). […] The tumor size was measured by using a digital caliper for 21 days at intervals of 3 to 4 days. Here, as a control, a nude mouse to which […] was not administered was used (n=5).

[2] = test system: RKO cells; assay: Annexin V-FITC/PI apoptosis measurement by flow cytometry; type: cell-based, human; settings: 48 hours, 0.625-10 μM, FIG. 4
Experimental: The process of apoptosis in the cell line RKO by Asperphenin B was confirmed using a Annexin V-FITC apoptosis measuring kit (manufactured by D Pharmingen).
As described in Example 2-3, Asperphenin B at the concentration of 0.625 μM, 1.25 μM, 2.5 μM, 5 μM, or 10 μM was added to the RKO cells, cultured for 48 hours to obtain cells. 300 μl of 1× binding buffer was added to the obtained cells, and well mixed together. Then, 5 μl of Annexin V and 5 μl of PI were added to 100 μl of the cell mixture, and allowed to react at room temperature for 15 minutes in the shaded stated. 400 μl of 1× binding buffer was added to the reactants, a FACSCalibur flow cytometer (BD FACSCalibur, BD Biosciences) was used to analyze the cell apoptosis. Based on the flow cytometry results, ratios of cells that were not stained (i.e., living cells), cells stained with annexin V (i.e., cells apoptosized at the early state), cells stained with both PI and annexin V (i.e., cells apoptosized at the late state or cells necrotized), or cells stained with PI only (i.e., cells necrotized) were calculated. As a negative control, cells to which Asperphenin B was not added were used.

[3] = test system: colon cancer cell line LS174T; assay: SRB cell viability assay, colon cancer cell line LS174T; type: cell-based; settings: Homo sapiens, read-out: Growth inhibition value of cancer cell (IC50)
Experimental: (§1) In detail, 190 μl of a cell suspension at a concentration of 3.5×10^4 cells/ml was inoculated in each well of a 96-well microplate. 0.8 μM, 4 μM, 20 μM, or 100 μM of Asperphenin was added to the cell culture medium, and cultured at a temperature of 37° C. for 72 hours under the condition of 5% CO2. After incubation, 50 μl of 50% (v/v) trichloroacetic acid solution (Sigma Aldrich) was added to each well, and then, incubated at a temperature of 4° C. for 30 minutes, to thereby fix the cells thereto. The fixed cells were washed with water five times, and then, dried in the air.
(§2) Next, 80 μl of a 0.4% (w/v) SRB aqueous solution (Sigma Aldrich) containing 1% (v/v) acetic acid (DUKSAN) was added to each well, incubated at room temperature for 1 hour to stain cells therein, and the stained cells washed with water and dried. The cells were dissolved by adding 200 μl of 10 mM Tris (pH 10.0) (Sigma Aldrich) to each well, and then, the number of living cells was calculated by measuring the absorbance thereof at 515 nm. […]
(§3) From the colon cancer cell lines HCT116 (ATCC), HCT15 (Korean Cell Line Bank), LS174T (Korean Cell Line Bank), RKO(ATCC), and SW480(ATCC), cell growth inhibition concentrations (IC50, μM) were calculated as described in Example 2-1, and the results are shown in Table 4. […]

[4] = test system: breast cancer cell line MDA-MB-231; assay: SRB cell viability assay, breast cancer cell line MDA-MB-231; type: cell-based; settings: Homo sapiens; MDA-MB-231, 72 hours; read-out: Cell growth inhibition concentration (IC50)
Experimental: (§4) Regarding a lung cancer cell line A549 (Korean Cell line Bank), a colon cancer cell line HCT116 (ATCC), a stomach cancer cell line SNU638 (Korean Cell Line Bank), a liver cancer cell line SK-HEP-1 (Korean Cell line Bank), and a breast cancer cell line MDA-MB-231 (Korean Cell line Bank), a sulforhodamine B (SRB) assay which is a method of measuring cell viability was used for measuring apoptosis effects of Asperphenin.
as §1
(§5) Next, 80 μl of a 0.4% (w/v) SRB aqueous solution (Sigma Aldrich) containing 1% (v/v) acetic acid (DUKSAN) was added to each well, incubated at room temperature for 1 hour to stain cells therein, and the stained cells washed with water and dried. The cells were dissolved by adding 200 μl of 10 mM Tris (pH 10.0) (Sigma Aldrich) to each well, and then, the number of living cells was calculated by measuring the absorbance thereof at 515 nm. The concentration of the compound inhibiting cell growth to 50% based on the number of the living cells, i.e., 50% inhibition concentration (IC50) was calculated, and the results are shown in Table 3. Here, as a positive control, etoposide (Sigma Aldrich) was used.

[5] = test system: colon cancer cell line HCT116; assay: SRB cell viability assay, colon cancer cell line HCT116; type: cell-based; settings: Homo sapiens, HCT-116
Experimental: as §4, §1, §5
From the colon cancer cell lines HCT116 (ATCC), HCT15 (Korean Cell Line Bank), LS174T (Korean Cell Line Bank), RKO(ATCC), and SW480(ATCC), cell growth inhibition concentrations (IC50, μM) were calculated as described in Example 2-1, and the results are shown in Table 4. Here, as a positive control, paclitaxel (Sigma Aldrich) was used.

[6] = Physicochemical characterization
[7] = test system: apoptosis-related proteins in RKO cells; assay: Immunoblotting of apoptosis-related proteins; type: cell-based, human
Experimental: As described in Example 2-3, cells were obtained in a way that Asperphenin B at the concentration of 0.625 μM, 1.25 μM, 2.5 μM, 5 μM, or 10 μM was added to the RKO cells, and then, cultured for 48 hours. However, cells were obtained in a way that Asperphenin B at the concentration of 5 μM was added to the RKO cells, and then, cultured for 0 to 48 hours. Then, proteins were obtained from the obtained cells.
Also, regarding the expression of apoptosis-related proteins, anti-ATM antibody (Cell Signaling Technology), anti-p-Chk (Thr68) antibody (Cell Signaling Technology), anti-Chk antibody (Cell Signaling Technology), anti-p-H2AX antibody (Cell Signaling Technology), anti-p53 antibody (Santa Cruz), anti-Bax antibody (Santa Cruz), anti-BID antibody (Cell Signaling Technology), anti-Caspase-8 antibody (Cell Signaling Technology), anti-Caspase-3 antibody (Cell Signaling Technology), anti-Caspase-9 antibody (Cell Signaling Technology), anti-cleaved PARP antibody (BD Biosciences), and anti-β-actin antibody (Santa Cruz) were used, to thereby perform immunoblotting.

[8] = test system: stomach cancer cell line SNU638; assay: SRB cell viability assay, stomach cancer cell line SNU638; type: cell-based; settings: Homo sapiens, SNU-638; SNU638, 72 hours; read-out: Cell growth inhibition concentration (IC50)
Experimental: as §4, §1, §5

[9] = test system: colon cancer cell line SW480; assay: SRB cell viability assay, colon cancer cell line SW480; type: cell-based; settings: Homo sapiens, read-out: Growth inhibition value of cancer cell (IC50)
Experimental: as §1, §2, §3

[10] = test system: colon cancer cell line HCT15; assay: SRB cell viability assay, colon cancer cell line HCT15; type: cell-based; settings: Homo sapiens, HCT-15, read-out: Growth inhibition value of cancer cell (IC50)
Experimental: as §1, §2, §3

## CCCCCCCCC[C@@H](O)CC(=O)N[C@@H](CC(N)=O)C(=O)N[C@@H](CCC(N)=O)C(=O)N[C@H](CC(=O)c1cc(C)cc(O)c1C(=O)c1c(O)cccc1O)CC(C)C [Asperphenin B]
[1]; 4 mg/kg intraperitoneally 3 times a week
  Tumor growth inhibition ratio: 38.9%
[1]; 4 mg/kg or 8 mg/kg
  Inhibition of tumor growth: observed in a compound concentration-dependent manner
[1]; 8 mg/kg intraperitoneally 3 times a week
  Tumor growth inhibition ratio: 68.7%
[2]
  Ratio of necrotic cells compared to control: increased
  Ratios of cells of early apoptosis and cells of late apoptosis or necrosis compared to control: increased
[3]
  IC50: 1.84 µM
[4]
  IC50: 6 µM
[5]; HCT116, 72 hours, Table 3, read-out: Cell growth inhibition concentration (IC50)
  IC50: 2.6 µM
[5]; HCT116, Table 4, read-out: Growth inhibition value of cancer cell (IC50)
  IC50: 4.05 µM
[6]
  Solubility in organic solvent: well dissolved in a moderate organic solvent, such as methanol and acetone
  Stability: stable at room temperature
[7]; 5 μM, 0 to 48 hours, FIG. 6B
  Expression of p53 and Bax: increased in a time-dependent manner
[7]; 5 μM, 48 hours, FIG. 6B
  Expression of p-Chk2 (Thr68), p-H2AX (Ser139), cleaved caspase-8, cleaved caspase-9, cleaved caspase-3, and PARP: increased
[7]; 48 hours, 0.625-10 μM, FIG. 6A
  Expression of ATM protein: increased in a concentration-dependent manner
  Expression of p53 protein: increased in a concentration-dependent manner
[7]; 48 hours, FIG. 6A
  Chk2 and H2AX, sub-regulatory factors of ATM: phosphorylated to be activated
  Cleavage of Bid, caspase-8, caspase-9, caspase-3 and PARP: induced
  Expression of Bax: increased expression
[8]
  IC50: 11.7 µM
[9]
  IC50: 31.4 µM
[10]
  IC50: 7.2 µM
